In PMC6863536, “Natural compounds as angiogenic enzyme thymidine phosphorylase inhibitors: In vitro biochemical inhibition, mechanistic, and in silico modeling studies” (PLoS ONE, 2019):
Entries after “also recorded” stand apart in the source; their conditions may differ. Where two headings read alike, the source gives them in different places.

What was measured:
[1] = biological target: T1, thymidine phosphorylase (TP), recombinant E. coli TP enzyme (Escherichia coli, UniProt P07650); assay: Thymidine phosphorylase inhibition assay (spectrophotometric); format: biochemical; conditions: 1.5 mM thymidine, 30°C, pH 7.0, 290 nm, test compounds screened at 500 μM
T1 construct: purchased Sigma Aldrich, USA
Experimental: In the current study, we have used commercially available recombinant E. coli TP enzyme, as human TP is not easily accessible.
Thymidine phosphorylase inhibition assay was carried out spectrophotometrically. Briefly, 0.058 U of TP enzyme (E.C. No. 2.4.2.4, E. coli) was incubated with 500 μM of test compounds at 30°C for 10 minutes. After that 1.5 mM of substrate thymidine was added to 96-well plate, and changes in absorbance were monitored for 10 minutes at 290 nm in microtiter plate reader (Spectramax, M5, Molecular Devices, CA, USA). Enzyme and substrate solution were prepared in 50 mM phosphate buffer of pH 7.0, while test compounds were prepared in DMSO (final concentration 4.5%).
Enzyme activity was measured under steady-state conditions by observing changes in absorbance for 10 min (at 290 nm) on microtiter plate reader (Spectra Max M5, Molecular Devices, CA, USA). Changes in absorbance upon addition of test compounds were analyzed with the SoftMax Pro 4.8 software which was purchased from Molecular Devices, CA, USA. To calculate the percent inhibition, following formula was used: % Inhibition = 100-Absorbance of test compound/Absorbance of control×100
Inhibitory potential of test compounds is represented in Figs 1–4 as IC50 value (Inhibitory concentration). […] It was calculated by measuring the effects of different concentrations of inhibitors on the degradation of thymidine. EZ-Fit, Enzyme kinetics software (purchased from Perrella Scientific, Inc., USA) was used to deduce the IC50 values.

[2] = biological target: T2, thymidine phosphorylase (TP) enzyme (Escherichia coli, UniProt P07650); assay: Mechanistic (kinetic) studies on TP, Lineweaver-Burk plot and secondary re-plot; format: biochemical, E. coli; conditions: for Type of inhibition: Lineweaver-Burk plot, substrate thymidine
T2 construct: purchased Sigma Aldrich, USA
Experimental: In mechanistic studies, TP enzyme was incubated with different concentrations of inhibitors at 30°C for 10 min. Reaction was then initiated by adding four different concentrations of substrate, i.e. thymidine (0.1875–1.5 mM). Enzyme activity was measured under steady state conditions by measuring changes in absorbance for another 10 min at 30°C at 290 nm, on microtiter plate reader (Spectramax, M5, Molecular Devices, CA, USA). Every experiment is performed in triplicate.
Lineweaver-Burk plot was used to determine the type of inhibition, where the reciprocal of rate of the reaction were plotted against the reciprocal of substrate concentration. Dissociation constant (Ki) were determined by secondary re-plot of Lineweaver-Burk plots. Kinetic data was analysed by GraFit 7 data analysis software (purchased from Erithacus Software Limited, UK).

[3] = In vitro MTT cytotoxicity assay; format: cell-based, mouse; conditions: mouse, 3T3 mouse fibroblast cells, 3T3 cells, 48 hrs incubation, read-out: Cytotoxicity IC50 (μM ± SD)
Experimental: (§1) The reduction of MTT can only occur in metabolically active cell, so the enzyme activity is actually a measure of cell viability.
(§2) Briefly, the mouse fibroblast cells (3T3) were cultured in DMEM media containing 5% FBS, 100 IU/ mL penicillin, and 100 μg/ mL streptomycin. Cell suspension (5×10^4cells/ mL) was dispensed in flat-bottomed 96-well plates, and incubated at 37°C and with 5% CO2. After the overnight incubation, old media was aspirated and fresh media containing different concentrations of compounds (prepared in DMSO) were added, and plate was further incubated for 48 hrs. After that, MTT dye (0.5 mg/ mL) was added into each well, and the plate was further incubated for 4 hrs. Following this, DMSO (100 μL) was added into each well, and the level of MTT reduction to formazan with in the cells was calculated by taking the absorbance at 540 nm using a micro plate reader (Spectra Max plus, Molecular Devices, CA, USA).
(§3) Cellular viability was measured for 10 min, at 570 nm on microtiter plate reader. Changes in absorbance upon addition of test compounds were analyzed with the SoftMax Pro 4.8 software which was purchased from Molecular Devices, CA, USA. Percent inhibition was calculated using the formula mentioned earlier.
(§4) It was calculated by measuring the effects of different concentrations of inhibitors on the growth of cells. EZ-Fit, Enzyme kinetics software was used to deduce the IC50 values.

[4] = system: mouse fibroblast (3T3) cell line; assay: In vitro MTT cytotoxicity assay; format: cell-based; conditions: 3T3 cells, 48 hrs incubation
Experimental: as §1, §2, §3, §4

[5] = read-out: TP Inhibition IC50 (μM ± SEM)
[6] = thymidine 0.1875–1.5 mM, 30°C, secondary re-plot of Lineweaver-Burk plot, read-out: Ki ± SEM (dissociation constant)

T1 sequence (P07650 whole entry): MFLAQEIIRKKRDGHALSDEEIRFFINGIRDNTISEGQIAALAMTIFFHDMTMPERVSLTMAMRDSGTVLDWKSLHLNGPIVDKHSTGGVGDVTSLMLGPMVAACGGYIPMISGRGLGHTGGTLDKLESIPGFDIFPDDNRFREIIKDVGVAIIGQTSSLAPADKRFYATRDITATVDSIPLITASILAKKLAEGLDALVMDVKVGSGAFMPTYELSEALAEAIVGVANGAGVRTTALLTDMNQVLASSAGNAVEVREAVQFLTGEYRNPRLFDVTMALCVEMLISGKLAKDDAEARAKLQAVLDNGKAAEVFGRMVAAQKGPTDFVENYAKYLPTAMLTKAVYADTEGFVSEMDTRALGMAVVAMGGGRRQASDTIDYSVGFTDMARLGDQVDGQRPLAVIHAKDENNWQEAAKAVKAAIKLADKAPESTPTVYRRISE
T2 sequence (P07650 whole entry): as above

Row | SMILES | IC50 [1, 5] | Type of inhibition [2] | Ki [2, 6] | further results
1 | COc1cc(O)c2c(=O)cc(-c3c(OC)ccc(O)c3O)oc2c1 [Compound 2] | 113 µM |  |  | 
2 | N=C1CCCN1Cc1[nH]c(=O)[nH]c(=O)c1Cl [Tipiracil, tipiracil, reference compound] | 0.014 ± 0.002 µM |  |  | 
3 | COc1c2ccoc2cc2oc(=O)ccc12 [Compound 7] | 344.2 ± 1.2 µM |  |  | 
4 | CC1(C)C=Cc2c(ccc3ccc(=O)oc23)O1 [Compound 8] | 181.1 ± 0.6 µM | Uncompetitive | 162 ± 0.001 µM | 
5 | O=c1cc(-c2ccccc2)oc2ccccc12 [Compound 1] | 195.1 ± 1.1 µM | Uncompetitive | 225 ± 0.002 µM | IC50 at 48 h [3]: 29.1 ± 0.61 µM
6 | C[C@H](Cc1ccc(O)c(O)c1)[C@@H](C)Cc1ccc(O)c(O)c1 [Compound 18, Masoprocol] | 44 ± 0.5 µM | competitive inhibitor | 25.6 ± 0.008 µM | Cytotoxicity IC50 (μM ± SD) [4]: non-toxic; also recorded: non-cytotoxic
7 | O=c1[nH]c(=O)c2cc[nH]c2[nH]1 [7-Deazaxanthine, 7-deazaxanthine, reference compound] |  | Non-competitive |  | 
8 | O=c1cc(-c2ccccc2)oc2cc(O)cc(O)c12 [Compound 4] |  |  |  | TP Inhibition IC50 (μM ± SEM) [1]: inactive
9 | O=c1cc(-c2ccc(O)cc2)oc2cc(O)cc(O)c12 [Compound 3] |  |  |  | TP Inhibition IC50 (μM ± SEM) [1]: inactive
10 | O=C(O)/C=C/c1ccccc1 [Compound 15, Cinnamic acid] |  |  |  | IC50 ([1]; TP Inhibition IC50 (μM ± SEM)): 349.7 ± 1.4 µM
11 | COc1cc2ccc(=O)oc2cc1O[C@@H]1O[C@H](CO[C@@H]2OC[C@](O)(CO)[C@H]2O)[C@@H](O)[C@H](O)[C@H]1O [Compound 10] |  | Uncompetitive |  | Ki [2]: 145 ± 0.001 µM; IC50 ([1]; TP Inhibition IC50 (μM ± SEM)): 295.2 ± 2 µM
12 | O=c1ccc2ccccc2o1 [Compound 6, coumarin] | 420 ± 6.15 µM | Uncompetitive | 171 ± 0.001 µM | 
13 | COc1c(O)cc2oc(-c3ccc(O)c(O)c3)c(O)c(=O)c2c1O [Compound 5] | 76.8 ± 1.1 µM | Mixed | 341.1 ± 0.01 µM | 
14 | COc1cc2ccc(=O)oc2cc1O [Compound 9] | 193.4 ± 1 µM | Non-competitive | 419 ± 0.001 µM | 
15 | COc1cc(C(=O)O)ccc1O [Compound 17, Vanillic acid] |  |  |  | TP Inhibition IC50 (μM ± SEM) [1]: inactive
16 | O=C(O)c1cc(O)c(O)c(O)c1 [Compound 16, Gallic acid] |  |  |  | TP Inhibition IC50 (μM ± SEM) [1]: inactive
17 | C[C@@H]1C[C@@H]([C@H](O)CC2CC(=O)NC(=O)C2)C(=O)[C@@H](C)C1 [Cyclohexamide, cycloheximide, reference compound] |  |  |  | IC50 ([4]; read-out: Cytotoxicity IC50 (μM ± SD)): 0.2 ± 0.1 µM
18 | COc1cc2c(cc1OC)-c1c(OC)c(OC)cc3c1[C@H](C2)N(C)CC3 [Compound 11, Glaucine HBr] | 238.5 ± 2.1 µM | Uncompetitive | 180 ± 0.01 µM | 
